From PubChem BioAssay (NCI)
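Interpolation was linear, between the two tested concentrations surrounding the appropriate level; five concentrations were tested over 48 hours in 96-well plates. GI50: concentration for 50% inhibition of growth. TGI denotes the concentration required for complete inhibition of growth.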

How the values were obtained:
Test in all cases: growth of human tumour cells (NCI), 48 h
SF-268 CNS = test system: SF-268 CNS
NCI/ADR-RES ovarian = test system: NCI/ADR-RES ovarian
HL-60(TB) leukemia = test system: HL-60(TB) leukemia
HS 578T breast = test system: HS 578T breast
IGROV1 ovarian = test system: IGROV1 ovarian
UACC-257 melanoma = test system: UACC-257 melanoma
RXF 393 renal = test system: RXF 393 renal
SK-MEL-2 melanoma = test system: SK-MEL-2 melanoma
UO-31 renal = test system: UO-31 renal
NCI-H460 lung = test system: NCI-H460 lung

| SMILES | TGI (SF-268 CNS) | TGI (NCI/ADR-RES ovarian) | TGI (HL-60(TB) leukemia) | TGI (HS 578T breast) | TGI (IGROV1 ovarian) | TGI (UACC-257 melanoma) | TGI (RXF 393 renal) | TGI (SK-MEL-2 melanoma) | TGI (UO-31 renal) | TGI (NCI-H460 lung) | GI50 (UO-31 renal) | GI50 (NCI-H460 lung) | GI50 (SF-268 CNS) | GI50 (NCI/ADR-RES ovarian) | GI50 (HL-60(TB) leukemia) | GI50 (HS 578T breast) | GI50 (IGROV1 ovarian) | GI50 (UACC-257 melanoma) | GI50 (RXF 393 renal) | GI50 (SK-MEL-2 melanoma) |
| --- | --- | --- | --- | --- | --- | --- | --- | --- | --- | --- | --- | --- | --- | --- | --- | --- | --- | --- | --- | --- |
| c1ccc2c(c1)-c1nc3ccccc3cc1C2N1CCOCC1 (stereo unspecified) | > 100 µM | > 100 µM | > 100 µM | > 100 µM | > 100 µM | > 100 µM | > 100 µM | > 100 µM | – | – | – | – | – | – | – | – | – | – | – | – |
| CN=C(NC#N)NCc1ccccc1 | > 100 µM | – | > 100 µM | – | > 100 µM | > 100 µM | – | > 100 µM | > 100 µM | > 100 µM | – | – | – | – | – | – | – | – | – | – |
| CCCCCCCCCCCCCCCc1nc(SCC(=O)O)n[nH]1 | > 100 µM | – | > 100 µM | – | > 100 µM | > 100 µM | > 100 µM | > 100 µM | > 100 µM | > 100 µM | – | – | – | – | – | – | – | – | – | – |
| Nc1c(S(=O)(=O)O)cc2c(c1Cl)C(=O)c1ccccc1C2=O | > 100 µM | > 100 µM | > 100 µM | > 100 µM | > 100 µM | > 100 µM | > 100 µM | – | > 100 µM | > 100 µM | > 100 µM | > 100 µM | > 100 µM | > 100 µM | > 100 µM | > 100 µM | > 100 µM | > 100 µM | > 100 µM | – |
| COc1ccc(/C=N/C2=C(C#N)C(c3ccccc3)c3ccc4ccccc4c3O2)cc1 (stereo unspecified) | > 100 µM | – | 1.44 µM | > 100 µM | > 100 µM | > 100 µM | – | > 100 µM | > 100 µM | > 100 µM | 0.368 µM | 0.363 µM | 1.65 µM | 0.262 µM | 0.321 µM | 0.279 µM | 0.403 µM | > 84.5 µM | – | 0.545 µM |
| COc1ccc2c(c1)cn1c3ccc(OC)cc3[nH]c(=O)c21 | 1.47 µM | – | < 0.0219 µM | – | 0.813 µM | 29.5 µM | 1.79 µM | 1.66 µM | 1.77 µM | – | < 0.0169 µM | – | < 0.0229 µM | < 0.01 µM | < 0.0113 µM | – | < 0.0155 µM | 14.6 µM | 0.0257 µM | 0.0574 µM |
| COc1cc(Nc2nccc(-c3cnn4ncccc34)n2)cc(OC)c1 | 0.48 µM | 2.26 µM | 0.12 µM | > 5.62 µM | > 23.9 µM | 0.48 µM | 0.131 µM | – | 0.196 µM | 2.93 µM | 0.055 µM | 0.0539 µM | 0.0697 µM | 0.0937 µM | 0.0362 µM | 0.096 µM | 0.0916 µM | 0.0844 µM | 0.0455 µM | – |
| CC(=O)c1ccc(-c2ccc(C(C)=O)s2)s1 | – | – | > 100 µM | – | > 100 µM | > 100 µM | > 100 µM | > 100 µM | > 100 µM | > 100 µM | – | – | – | – | – | – | – | – | – | – |
| O=C(c1ccccc1)C(c1ccccc1)C1(O)C(=O)Nc2ccc(Br)cc21 (stereo unspecified) | > 100 µM | – | 48.2 µM | – | > 100 µM | 53.8 µM | > 100 µM | > 100 µM | > 100 µM | > 100 µM | – | – | – | – | – | – | – | – | – | – |
| CC(NC(=O)C1(N)CCCC1)C(=O)O (stereo unspecified) | > 100 µM | > 100 µM | > 100 µM | > 100 µM | > 100 µM | > 100 µM | > 100 µM | > 100 µM | > 100 µM | – | – | – | – | – | – | – | – | – | – | – |
| COc1cc(C2C(Cl)C(=O)N2NC(=O)c2ccccc2O)cc(OC)c1OC (stereo unspecified) | > 10 µM | – | 5.96 µM | > 10 µM | > 10 µM | 7.46 µM | > 10 µM | – | > 10 µM | > 10 µM | – | – | – | – | – | – | – | – | – | – |
| CCn1cc(C(=O)O)c(=O)c2cc(F)c(N3CCNCC3)nc21 | > 100 µM | – | > 100 µM | – | > 100 µM | > 100 µM | – | > 100 µM | > 100 µM | > 100 µM | – | – | – | – | – | – | – | – | – | – |
| Fc1cccc(C2SCc3nc4ccccc4n32)c1 (stereo unspecified) | > 100 µM | – | 62.8 µM | – | > 100 µM | 69.1 µM | > 10 µM | > 100 µM | > 100 µM | > 100 µM | – | – | – | – | – | – | – | – | – | – |
| COC(=O)c1cccc(COc2ccc([N+](=O)[O-])cc2Cl)c1 | > 100 µM | > 100 µM | – | > 100 µM | > 100 µM | > 100 µM | > 100 µM | > 100 µM | > 100 µM | > 100 µM | – | – | – | – | – | – | – | – | – | – |
| COC(=O)C1=CCS(=O)(=O)C1 | > 100 µM | – | > 100 µM | – | > 100 µM | > 100 µM | > 100 µM | > 100 µM | > 100 µM | > 100 µM | – | – | – | – | – | – | – | – | – | – |
| Cc1cc2c(C=O)[nH]nc2c(C#N)c1C | > 100 µM | – | – | – | > 100 µM | > 100 µM | – | > 100 µM | > 100 µM | > 100 µM | – | – | – | – | – | – | – | – | – | – |
| O=C1C2Cc3ccccc3CN2C(=O)N1CCN1CCOCC1 (stereo unspecified) | > 100 µM | – | > 100 µM | – | > 100 µM | – | – | > 100 µM | > 100 µM | > 100 µM | – | – | – | – | – | – | – | – | – | – |
| CC12CCC(C)(c3cc(O)c(O)cc31)c1cc(O)c(O)cc12 | 42.9 µM | – | 13.1 µM | – | 40.4 µM | 29.8 µM | 31.3 µM | > 100 µM | 43.5 µM | 35.7 µM | – | – | – | – | – | – | – | – | – | – |
| O=CN/C=C\c1cc(O)ccc1O | > 57.8 µM | – | 47.8 µM | – | > 58.4 µM | 19.2 µM | – | > 100 µM | 29.1 µM | > 56.2 µM | – | – | – | – | – | – | – | – | – | – |
| O=c1c2ccc(Br)cc2nc(-c2ccccc2)n1NC1OC(CO)C(O)C(O)C1O (stereo unspecified) | > 100 µM | – | > 100 µM | – | > 100 µM | > 100 µM | – | > 100 µM | > 100 µM | > 100 µM | – | – | – | – | – | – | – | – | – | – |
| OC1/C(=C/c2ccccc2)CNC/C1=C\c1ccccc1 (stereo unspecified) | > 100 µM | – | > 100 µM | – | > 100 µM | > 100 µM | > 100 µM | – | > 100 µM | > 100 µM | – | – | – | – | – | – | – | – | – | – |
| COc1cc(C2C(C(=O)Nc3ccccc3C)=C(C)NC(C)=C2C(=O)Nc2ccccc2C)ccc1O | – | – | > 100 µM | – | > 100 µM | > 100 µM | > 100 µM | > 100 µM | > 100 µM | > 100 µM | – | – | – | – | – | – | – | – | – | – |
| OCC1C2C=CC(O2)[C@H]1CO (stereo partly specified) | > 100 µM | – | > 100 µM | – | > 100 µM | > 100 µM | > 100 µM | – | > 100 µM | > 100 µM | – | – | – | – | – | – | – | – | – | – |
| O=c1cc(/C=C/c2ccccc2)c2ccc(O/C(=C\c3ccccc3)c3nc4ccccc4c(=O)o3)cc2o1 | 35.8 µM | – | 45.5 µM | – | > 100 µM | 98.4 µM | – | 77.7 µM | – | > 100 µM | – | – | – | – | – | – | – | – | – | – |
